Laboratory results from US5231182A, “Method of making certain aryl containing amides” (American Cyanamid Company, priority 1991, dated 1993).
Values joined by “and” are separate entries in the source; they are usually repeats but may differ in a detail not shown here. Identical values can stand only once. Counter-ions that a name gives are not always drawn.

Assays:
[1] = system: Endotoxin induced shock and mortality; experiment: Endotoxin induced shock and mortality in mice: low dose, chronic mouse endotoxemia; format: in vivo, Male Balb/c mice
Text: Endotoxin administration produces a shock-like state characterized by vascular permeability changes, hypotension, neutropenia, thrombocytopenia,multiple organ damage and death. The major mediators released after endotoxin injection are TNF (tumor necrosis factor), PAF (platelet activating factor) and […] (interleukin I). PAF administration mimics the signs and symptoms of endotoxin induced shock and death and endotoxin also induces the release of PAF. Therefore, the effects of endotoxin should be blocked with a PAF antagonist.
Male Balb/c mice (approximately 20 g) are obtained from Charles River Laboratories and used after a one-two week acclimation period. Animals are given (ip) test compound dissolved in saline or water (sonicated and heated) at different time intervals prior to and after the ip injection of endotoxin (usually 2 hours before LPS endotoxin, and 3-4 hours after). Sigma E. Coli endotoxin, 0111:B4, phenol extraction, catalog #L2630 is used for these studies.
For the chronic endotoxin shock model, a lower dose of endotoxin is administered (generally 15 to 20 mg/kg i.p). This dose gives an LD80 in two to four days following LPS administration. Test compounds are given 2 hours before LPS and 3-4 hours after on the first day, followed by 3 or 4 consecutive days of BID dosing. The number of survivors in each group is recorded each day for a period of 5 to 7 days.
Effect of Compounds Given i.p. in Low Dose, Chronic Mouse Endoxemia

PAF receptor = molecular target: T1, PAF receptor (Oryctolagus cuniculus, UniProt G1TEI7); experiment: Platelet Activating Factor antagonism in vitro: inhibition of PAF induced platelet aggregation in rabbit platelet rich plasma; format: cell-based, rabbit (New Zealand White); conditions: PAF chall conc 5.0000E-08 M
T1 construct: centrifuged at 800 rpm for 10-15 minutes at room temperature to recover the platelet rich plasma (PRP); endogenous in cells; host or cells: platelets in citrated platelet rich plasma from male New Zealand White rabbits (Oryctolagus cuniculus)
Experimental: Test compounds are evaluated as PAF receptor antagonists in vitro by measuring inhibition of PAF (platelet activating factor) induced platelet aggregation. Platelet aggregation is measured by a modification of the method described in […], et. al., J. Med. Chem., 27 1174, 1984. […] All syringes and pipets are plastic. The blood is gently mixed and immediately centrifuged at 800 rpm for 10-15 minutes at room temperature to recover the platelet rich plasma (PRP). Platelet poor plasma (PPP) is prepared by centrifuging PRP at 2800 rpm for 10 minutes at room temperature. Dilutions (1:3000) of PRP in Isoton® diluent are made and platelet counts are determined on a Coulter Thrombocounter which is standardized with platelet reference standards (Interscience Platelet Control, Portland, Oreg.). PRP platelet counts are adjusted to approximately 400,000-500,000 platelets/μl by the addition of PPP. L-PAF (Platelet Activating Factor) is obtained from Calbiochem. […] All solutions are made up in plastic tubes, stored on ice and protected from heat and light. Solutions are prepared fresh or frozen at -20° C. and used within 48 hours. Incubation mixtures consisted of 400 μl PRP, 50 μl of saline diluent or test compound and 50 μl of PAF agonist. More specifically, 400 μl of PRP is stabilized in a cuvette for 1-2 minutes at 37° C. in the aggregometer to achieve a stable baseline, then 50 μl of saline or test compound is added and incubated for 5 minutes before addition of the challenge concentration of PAF. A submaximal concentration is determined from the dose response curve for PAF for that experiment. In general, the challenge concentration is 5E-8 or IE-7M. Aggregation is monitored for 5 minutes. Samples containing test compound or diluent are run simultaneously for comparison. Test compounds are initially evaluated at a screening concentration of 1E-5M. […] The recording equipment consists of a dual channel Chronolog aggregometer connected to a dual channel 10MV full scale deflection Omniscribe chart recorder (Houston Instruments). The chart recorder is calibrated daily with the use of a suspension of Bio-Rad latex beads (S-X 12 400 mesh) which has a density slightly greater than rabbit PRP. […] These limits defined a full scale deflection. The aggregation traces are analyzed by a digitizing method (C. Kohler and B. Zoltan, J. Pharm. Methods, 12, 113, 1984) with x, y coordinate data stored in a computer file. A suitable program computes parameters of interest such as the magnitude of aggregation. | ^a dose of compound that gives the indicated % inhibition. | ^b the % inhibition of PAF induced platelet aggregation. | ^c the molar concentration of compound that will inhibit 50% of the | platelet aggretation induced by PAF given at the indicated PAF challenge | concentration.

PAF induced lethality = PAF induced lethality in mice; format: in vivo; conditions: PAF 150 μg/kg IV
Experimental: PAF given I.V. to mice causes an immediate hypotensive shock leading to death in 1 hour or less. Compounds are given intraperitoneally or P.O. at various times before the PAF challenge. Animals alive after 2 hours are counted and the activity of test compounds expressed as % survival corrected for any control (saline treated) animals which survived the PAF challenge.
Effect of Compound Given I.V. or P.O. in Protecting
Mice from a Lethal Challenge of PAF^a
^a lethal challenge of PAF is 150 μg/kg IV.

T1 sequence (G1TEI7 1-342): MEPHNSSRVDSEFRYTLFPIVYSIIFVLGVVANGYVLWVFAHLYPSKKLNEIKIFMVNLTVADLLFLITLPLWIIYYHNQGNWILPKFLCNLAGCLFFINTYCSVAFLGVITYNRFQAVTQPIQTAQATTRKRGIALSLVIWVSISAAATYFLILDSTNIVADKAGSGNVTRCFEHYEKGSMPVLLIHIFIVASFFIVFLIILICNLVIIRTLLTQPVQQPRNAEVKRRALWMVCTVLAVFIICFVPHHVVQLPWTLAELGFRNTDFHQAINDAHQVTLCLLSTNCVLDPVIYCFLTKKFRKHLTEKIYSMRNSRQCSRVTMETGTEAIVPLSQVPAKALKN

Structure (SMILES) | % Survival ([1]; day 0, dose 10 mg/kg i.p.) [%] | No Surv./tot. ([1]; day 0, dose 10 mg/kg i.p.) | % Survival ([1]; day 0, dose 20 mg/kg i.p.) [%] | No Surv./tot. ([1]; day 0, dose 20 mg/kg i.p.) | % Survival ([1]; day 1, dose 10 mg/kg i.p.) [%] | No Surv./tot. ([1]; day 1, dose 10 mg/kg i.p.) | % Survival ([1]; day 1, dose 20 mg/kg i.p.) [%] | No Surv./tot. ([1]; day 1, dose 20 mg/kg i.p.) | % Survival ([1]; day 2, dose 10 mg/kg i.p.) [%] | No Surv./tot. ([1]; day 2, dose 10 mg/kg i.p.) | % Survival ([1]; day 2, dose 20 mg/kg i.p.) [%] | No Surv./tot. ([1]; day 2, dose 20 mg/kg i.p.) | % Survival ([1]; day 3, dose 10 mg/kg i.p.) [%] | No Surv./tot. ([1]; day 3, dose 10 mg/kg i.p.) | % Survival ([1]; day 3, dose 20 mg/kg i.p.) [%] | % Survival ([1]; day 4, dose 10 mg/kg i.p.) [%] | No Surv./tot. ([1]; day 4, dose 10 mg/kg i.p.) | % Survival ([1]; day 5, dose 10 mg/kg i.p.) [%] | No Surv./tot. ([1]; day 5, dose 10 mg/kg i.p.) | No Surv./tot. ([1]; day 6, dose 10 mg/kg i.p.) | other results
CCCCCCCCCCCCCCOc1ccc(CC(=O)Nc2cccc(C[n+]3ccsc3)c2)cc1.[Br-] [3-[[3-[[[-4-(tetradecyloxy)phenyl]acetyl]amino]phenyl]methyl]thiazolium bromide] | 100 | 30/30 | 100 | 30/30 | 83 | 25/30 | 90 | 27/30 | 66 | 20/30 | 43 | 13/30 | 63 | 19/30 | 40 | 63 | 19/30 | 63 | 19/30 | 19/30 | No Surv./tot. ([1]; day 3, dose 20 mg/kg i.p.): 12/30; % Survival ([1]; day 4, dose 20 mg/kg i.p.): 40%; No Surv./tot. ([1]; day 4, dose 20 mg/kg i.p.): 12/30; % Survival ([1]; day 5, dose 20 mg/kg i.p.): 40%; No Surv./tot. ([1]; day 5, dose 20 mg/kg i.p.): 12/30; No Surv./tot. ([1]; day 6, dose 20 mg/kg i.p.): 12/30; % Survival ([1]; day 7, dose 10 mg/kg i.p.): 63%; No Surv./tot. ([1]; day 7, dose 10 mg/kg i.p.): 19/30; % Survival ([1]; day 7, dose 20 mg/kg i.p.): 40%; No Surv./tot. ([1]; day 7, dose 20 mg/kg i.p.): 12/30; % INH (inhibition of PAF induced platelet aggregation) (PAF receptor; dose .000001 M): 93.0% and 62.0%; % Survival (PAF induced lethality; P.O. 40 mg/kg): 40%
CCCCCCCCCCCCCCOc1ccc(CC(=O)Nc2cccc(-n3ccnc3C)c2)cc1 [N-[3-(2-Methyl-1H-imidazol-1-yl)phenyl-4-(tetradecyloxy)benzeneacetamidemonohydrochloride] |  |  |  |  |  |  |  |  |  |  |  |  |  |  |  |  |  |  |  |  | % INH (inhibition of PAF induced platelet aggregation) (PAF receptor; dose .00001 M, monohydrochloride): 39.0%
CCCCCCCCCCCCCCOc1ccc(CC(=O)Nc2ccc(C[n+]3csc(C)c3)cc2)cc1.[Br-] [5-Methyl-3-[[4-[[[4-(tetradecyloxy)phenyl]acetyl]amino]phenyl]methyl]thiazolium bromide] | 100 | 30/30 | 100 | 30/30 | 100 | 30/30 | 90 | 27/30 | 80 | 24/30 | 60 | 18/30 | 80 | 24/30 | 60 | 80 | 24/30 | 80 | 24/30 | 24/30 | No Surv./tot. ([1]; day 3, dose 20 mg/kg i.p.): 18/30; % Survival ([1]; day 4, dose 20 mg/kg i.p.): 60%; No Surv./tot. ([1]; day 4, dose 20 mg/kg i.p.): 18/30; % Survival ([1]; day 5, dose 20 mg/kg i.p.): 60%; No Surv./tot. ([1]; day 5, dose 20 mg/kg i.p.): 18/30; % Survival ([1]; day 6, dose 10 mg/kg i.p.): 80%; % Survival ([1]; day 6, dose 20 mg/kg i.p.): 56%; No Surv./tot. ([1]; day 6, dose 20 mg/kg i.p.): 17/30; % INH (inhibition of PAF induced platelet aggregation) (PAF receptor; dose .00001 M): 100.0%; % Survival (PAF induced lethality; P.O. 5 mg/kg): 32%; % Survival (PAF induced lethality; P.O. 20 mg/kg): 32%
CCCCCCCCCCCCCCOc1ccc(CN(C(=O)NC)c2cccc(C[n+]3csc(C)c3)c2)cc1.[Br-] [5-Methyl-3-[[3-[[(methylamino)carbonyl]-[[4-(tetradecyloxy)phenyl]methyl]amino]phenyl]methyl]thiazolium bromide] | 100 | 30/30 | 100 | 30/30 | 80 | 24/30 | 90 | 27/30 | 46 | 14/30 | 23 | 7/30 | 46 | 14/30 | 20 | 46 | 14/30 | 46 | 14/30 | 14/30 | No Surv./tot. ([1]; day 3, dose 20 mg/kg i.p.): 6/30; % Survival ([1]; day 4, dose 20 mg/kg i.p.): 20%; No Surv./tot. ([1]; day 4, dose 20 mg/kg i.p.): 6/30; % Survival ([1]; day 5, dose 20 mg/kg i.p.): 20%; No Surv./tot. ([1]; day 5, dose 20 mg/kg i.p.): 6/30; No Surv./tot. ([1]; day 6, dose 20 mg/kg i.p.): 6/30; % Survival ([1]; day 7, dose 10 mg/kg i.p.): 46%; No Surv./tot. ([1]; day 7, dose 10 mg/kg i.p.): 14/30; % Survival ([1]; day 7, dose 20 mg/kg i.p.): 20%; No Surv./tot. ([1]; day 7, dose 20 mg/kg i.p.): 6/30
CCCCCCCCCCCCCCOc1ccc(CN(C(C)=O)c2cccc(C[n+]3csc(C)c3)c2)cc1.[Br-] [3-[[3-[Acetyl[[4-(tetradecyloxy)phenyl]methyl]amino]phenyl]methyl]-5-methylthiazolium bromide] | 100 | 30/30 |  |  | 73 | 22/30 |  |  | 33 | 10/30 |  |  | 26 | 8/30 |  | 23 | 7/30 | 23 | 7/30 | 7/30 | % Survival ([1]; day 6, dose 10 mg/kg i.p.): 23%; % INH (inhibition of PAF induced platelet aggregation) (PAF receptor; dose .00001 M): 100.0% and 90.0%; % Survival (PAF induced lethality; I.V. 1 mg/kg): 83%; % Survival (PAF induced lethality; I.V. .25 mg/kg): 100%; % Survival (PAF induced lethality; I.V. .5 mg/kg): 83%; % Survival (PAF induced lethality; P.O. 5 mg/kg): 52%; % Survival (PAF induced lethality; P.O. 10 mg/kg): 75%; % Survival (PAF induced lethality; P.O. 20 mg/kg): 75%
